This passage reports Ki results from patent US11053242B2, “[9,10-dimethoxy-3-(2-methylpropyl)-1H,2H,3H,4H,6H,7H,11BH-pyrido-[2,1-a]isoquinolin-2-yl]methanol and compounds, compositions and methods relating thereto” (Neurocrine Biosciences, Inc., priority 2015, dated 2021).

Some results are limits rather than exact numbers.

The test deals with VMAT2 (human platelet homogenate) (Homo sapiens (Human), UniProt Q05940). The test can be described thus: Human VMAT2 Ki, slightly modified competition binding procedure (Table 11).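 Also: competition binding with 90 min incubation at 25 °C, after which filter-retained radioligand was measured by scintillation counting.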 The conditions noted are these: 10 nM 3H-dihydrotetrabenazine.
VMAT2 (human platelet homogenate), sequence (Q05940 whole entry): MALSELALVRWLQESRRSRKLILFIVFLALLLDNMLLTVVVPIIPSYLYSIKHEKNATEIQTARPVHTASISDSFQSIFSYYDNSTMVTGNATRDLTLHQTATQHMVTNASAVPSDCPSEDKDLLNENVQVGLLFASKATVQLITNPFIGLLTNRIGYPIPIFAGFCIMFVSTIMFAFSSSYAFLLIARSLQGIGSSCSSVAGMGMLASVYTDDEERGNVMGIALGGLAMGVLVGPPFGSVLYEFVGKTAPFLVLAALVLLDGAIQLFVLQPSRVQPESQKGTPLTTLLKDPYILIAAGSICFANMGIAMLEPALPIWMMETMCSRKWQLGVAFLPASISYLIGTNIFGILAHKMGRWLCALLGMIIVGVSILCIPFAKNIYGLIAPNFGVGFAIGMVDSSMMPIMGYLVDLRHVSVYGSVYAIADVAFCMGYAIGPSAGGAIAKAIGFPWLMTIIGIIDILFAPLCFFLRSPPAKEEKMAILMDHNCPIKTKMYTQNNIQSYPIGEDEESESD

Protocol: Following incubation at 25° C. for 90 minutes, bound radioligand was collected by rapid filtration onto GF/B glass fiber filters using a Unifilter-96 Harvester (PerkinElmer). Filter plates were pre-treated with 0.1% polyethylenimine and allowed to dry overnight, and following harvesting the filter plates were washed with 800 d VMAT2 binding buffer. Bound radioligand was quantified by scintillation counting using a Topcount NXT (PerkinElmer).

In the case of `COc1cc2c(cc1OC)[C@H]1C[C@@H](COC(=O)N3CCN(S(C)(=O)=O)CC3)[C@H](CC(C)C)CN1CC2` [Compound 5-15, [(2R,3S,11bR)-9,10-dimethoxy-3-(2-methylpropyl)-1H,2H,3H,4H,6H,7H,11bH-pyrido[2,1-a]isoquinolin-2-yl]methyl 4-methanesulfonylpiperazine-1-carboxylate], the inhibition constant (Ki) lay in the range of 10 to 500 nM. Turning to `COc1cc2c(cc1OC)[C@H]1C[C@@H](COC(=O)C3CN(Cc4ccccc4)C3)[C@H](CC(C)C)CN1CC2` [Compound 2-21, [(2R,3S,11bR)-9,10-dimethoxy-3-(2-methylpropyl)-1H,2H,3H,4H,6H,7H,11bH-pyrido[2,1-a]isoquinolin-2-yl]methyl 1-benzylazetidine-3-carboxylate], the inhibition constant (Ki) is < 10 nM. Take `COc1cc2c(cc1OC)[C@H]1C[C@@H](COC(=O)CCn3ccc(C)n3)[C@H](CC(C)C)CN1CC2` [Compound 2-23, [(2R,3S,11bR)-9,10-dimethoxy-3-(2-methylpropyl)-1H,2H,3H,4H,6H,7H,11bH-pyrido[2,1-a]isoquinolin-2-yl]methyl 3-(3-methyl-1H-pyrazol-1-yl)propanoate]: the inhibitory constant (Ki) is < 10 nM. The figure for `COc1cc2c(cc1OC)[C@H]1C[C@@H](COC(=O)CCN(C)C)[C@H](CC(C)C)CN1CC2` [Compound 2-7, [(2R,3S,11bR)-9,10-dimethoxy-3-(2-methylpropyl)-1H,2H,3H,4H,6H,7H,11bH-pyrido[2,1-a]isoquinolin-2-yl]methyl 3-(dimethylamino)propanoate] is < 10 nM. For `COc1cc2c(cc1OC)[C@H]1C[C@@H](COC(=O)C(C)(C)C)[C@H](CC(C)C)CN1CC2` [Compound 2-17, [(2R,3S,11bR)-9,10-dimethoxy-3-(2-methylpropyl)-1H,2H,3H,4H,6H,7H,11bH-pyrido[2,1-a]isoquinolin-2-yl]methyl 2,2-dimethylpropanoate] the value was 10 to 500 nM; for `COc1cc2c(cc1OC)[C@H]1C[C@@H](COC(=O)CC3(N)CCCCC3)[C@H](CC(C)C)CN1CC2` [Compound 4-14, [(2R,3S,11bR)-9,10-dimethoxy-3-(2-methylpropyl)-1H,2H,3H,4H,6H,7H,11bH-pyrido[2,1-a]isoquinolin-2-yl]methyl 2-(1-aminocyclohexyl)acetate], < 10 nM. With `CCS(=O)(=O)NCCC(=O)OC[C@@H]1C[C@@H]2c3cc(OC)c(OC)cc3CCN2C[C@H]1CC(C)C` [Compound 2-5, [(2R,3S,11bR)-9,10-dimethoxy-3-(2-methylpropyl)-1H,2H,3H,4H,6H,7H,11bH-pyrido[2,1-a]isoquinolin-2-yl]methyl 3-ethanesulfonamidopropanoate], the Ki was < 10 nM.

`COc1cc2c(cc1OC)[C@H]1C[C@@H](COC(=O)OC(C)C)[C@H](CC(C)C)CN1CC2` [Compound 8-1, [(2R,3S,11bR)-9,10-dimethoxy-3-(2-methylpropyl)-1H,2H,3H,4H,6H,7H,11bH-pyrido[2,1-a]isoquinolin-2-yl]methyl propan-2-yl carbonate] showed a Ki of 10 to 500 nM. For `COc1cc2c(cc1OC)[C@H]1C[C@@H](COC(=O)C[C@H]3CCCN3)[C@H](CC(C)C)CN1CC2` [Compound 4-23, [(2R,3S,11bR)-9,10-dimethoxy-3-(2-methylpropyl)-1H,2H,3H,4H,6H,7H,11bH-pyrido[2,1-a]isoquinolin-2-yl]methyl 2-[(2R)-pyrrolidin-2-yl]acetate] the value was < 10 nM; for `CCOC[C@@H]1C[C@@H]2c3cc(OC)c(OC)cc3CCN2C[C@H]1CC(C)C` [Compound 9-8, (2R,3S,11bR)-2-(ethoxymethyl)-9,10-dimethoxy-3-(2-methylpropyl)-1H,2H,3H,4H,6H,7H,11bH-pyrido[2,1-a]isoquinoline], < 10 nM; for `COc1cc2c(cc1OC)[C@H]1C[C@@H](COC(=O)CCn3c(=O)oc4ccccc43)[C@H](CC(C)C)CN1CC2` [Compound 2-39, [(2R,3S,11bR)-9,10-dimethoxy-3-(2-methylpropyl)-1H,2H,3H,4H,6H,7H,11bH-pyrido[2,1-a]isoquinolin-2-yl]methyl 3-(2-oxo-2,3-dihydro-1,3-benzoxazol-3-yl)propanoate], < 10 nM. Take `COc1cc2c(cc1OC)[C@H]1C[C@@H](COC(=O)CCN)[C@H](CC(C)C)CN1CC2` [Compound 4-24, [(2R,3S,11bR)-9,10-dimethoxy-3-(2-methylpropyl)-1H,2H,3H,4H,6H,7H,11bH-pyrido[2,1-a]isoquinolin-2-yl]methyl 3-aminopropanoate]: the Ki is < 10 nM.

`COc1cc2c(cc1OC)[C@H]1C[C@@H](COC(=O)C(N)c3ccccc3OC)[C@H](CC(C)C)CN1CC2` (stereo partly drawn) [Compound 4-19, [(2R,3S,11bR)-9,10-dimethoxy-3-(2-methylpropyl)-1H,2H,3H,4H,6H,7H,11bH-pyrido[2,1-a]isoquinolin-2-yl]methyl 2-amino-2-(2-methoxyphenyl)acetate] showed a Ki of 10 to 500 nM. On to `COc1cc2c(cc1OC)[C@H]1C[C@@H](COC(=O)N3CCN[C@H](C#N)C3)[C@H](CC(C)C)CN1CC2` [Compound 6-9, [(2R,3S,11bR)-9,10-dimethoxy-3-(2-methylpropyl)-1H,2H,3H,4H,6H,7H,11bH-pyrido[2,1-a]isoquinolin-2-yl]methyl (3S)-3-cyanopiperazine-1-carboxylate], for which the Ki was < 10 nM. For `COc1cc2c(cc1OC)[C@H]1C[C@@H](COC(=O)[C@@H]3CC(=O)NC(=O)N3)[C@H](CC(C)C)CN1CC2` [Compound 2-31, [(2R,3S,11bR)-9,10-dimethoxy-3-(2-methylpropyl)-1H,2H,3H,4H,6H,7H,11bH-pyrido[2,1-a]isoquinolin-2-yl]methyl (4S)-2,6-dioxo-1,3-diazinane-4-carboxylate], the inhibitory constant (Ki) is < 10 nM. The figure for `COc1cc2c(cc1OC)[C@H]1C[C@@H](COC(=O)CCNS(=O)(=O)C(C)C)[C@H](CC(C)C)CN1CC2` [Compound 2-16, [(2R,3S,11bR)-9,10-dimethoxy-3-(2-methylpropyl)-1H,2H,3H,4H,6H,7H,11bH-pyrido[2,1-a]isoquinolin-2-yl]methyl 3-(propane-2-sulfonamido)propanoate] is < 10 nM. Take `COc1cc2c(cc1OC)[C@H]1C[C@@H](COC(=O)N3CCN(C)CC3)[C@H](CC(C)C)CN1CC2` [Compound 5-7, [(2R,3S,11bR)-9,10-dimethoxy-3-(2-methylpropyl)-1H,2H,3H,4H,6H,7H,11bH-pyrido[2,1-a]isoquinolin-2-yl]methyl 4-methylpiperazine-1-carboxylate]: the Ki was > 500 nM. Take `COc1cc2c(cc1OC)[C@H]1C[C@@H](COC(=O)N3CCN(C(C)C)CC3)[C@H](CC(C)C)CN1CC2` [Compound 5-31, [(2R,3S,11bR)-9,10-dimethoxy-3-(2-methylpropyl)-1H,2H,3H,4H,6H,7H,11bH-pyrido[2,1-a]isoquinolin-2-yl]methyl 4-(propan-2-yl)piperazine-1-carboxylate]: the Ki was < 10 nM. Turning to `COc1cc2c(cc1OC)[C@H]1C[C@@H](COC(=O)C3CCCN(S(C)(=O)=O)C3)[C@H](CC(C)C)CN1CC2` (stereo partly drawn) [Compound 2-37, [(2R,3S,11bR)-9,10-dimethoxy-3-(2-methylpropyl)-1H,2H,3H,4H,6H,7H,11bH-pyrido[2,1-a]isoquinolin-2-yl]methyl 1-methanesulfonylpiperidine-3-carboxylate], the inhibition constant Ki fell in the range of 10 to 500 nM.

For orientation: Ki means a measure of affinity in units of concentration, obtained from inhibition or displacement.
